These results are taken from patent US9339564B2, “Ether and alkyl phospholipid compounds for treating cancer and imaging and detection of cancer” (Cellectar, Inc., priority 2009, dated 2016).

The subject of experiment [1] is solid xenograft and spontaneous human tumor and rodent tumor models. Description: Tumor uptake and retention of CLR1404 in tumor models. The conditions noted are these: over fifty solid xenograft and spontaneous human tumor and rodent tumor models. It counts as in vivo. The source says: (§1) We have developed several series of tumor-selective radiolabeled ether and alkyl phospholipid compounds for imaging, characterization, and treatment of malignant tumors. […] Cellular signaling and regulation of phospholipids, including phospholipase-D and its isoforms, as well as Phosphatase and Tensin Homologue Deleted from Chromosome-10 (PTEN) and phosphatidylinositol phosphate (PIPn) pathways, are known to be directly involved in upstream regulation of many key oncogenic pathways. We now have strong evidence that the uptake and retention of our PLE analogs is due at least in part to these upstream regulation and signaling cancer cell pathways.
A general note: Xenograft models place foreign cells or tissue in a host animal.

Experiment [2] deals with benign or premalignant lesions or inflammatory lesions. In words: Localization of CLR1404 in non-malignant lesions. In kind it is in vivo. The conditions noted are these: stated in contrast to 18F-FDG.
Description: as §1

Turning to `C[N+](C)(C)CCOP(=O)([O-])OCCCCCCCCCCCCCCCCCCc1ccc(I)cc1` [CLR1404, 18-(p-iodophenyl)octadecyl phosphocholine], in experiment [1], the “uptake and retention in tumors” value was “striking uptake and prolonged selective retention properties”. The “localization in benign, premalignant or inflammatory lesions” value in experiment [2] is on record as “does not localize in benign or premalignant lesions or in inflammatory lesions”.
